According to ChEMBL document CHEMBL1144073, “A cytotoxic triterpene saponin from the root bark of Aralia dasyphylla” (J Nat Prod, 1999):
Values after ≈ are worked out from the molar mass of the structure shown.

Assays:
[1] = test system: KB; test: Cytotoxicity against human KB cells; assay type: functional, cell-based
[2] = test system: HeLa; test: Cytotoxicity against human HeLa S3 cells; assay type: functional, cell-based

O=c1[nH]cc(F)c(=O)[nH]1 [FLUOROURACIL] gave an IC50 [1] of 0.93 µg/mL (≈ 7.15 µM) and an IC50 [2] of 0.44 µg/mL (≈ 3.38 µM).

With CC1(C)CC[C@]2(C(=O)O[C@@H]3O[C@H](CO)[C@@H](O)[C@H](O)[C@H]3O)CC[C@]3(C)C(=CC[C@@H]4[C@@]5(C)CC[C@H](O[C@@H]6O[C@H](C(=O)O)[C@@H](O)[C@H](O[C@@H]7O[C@H](CO)[C@@H](O)[C@H](O)[C@H]7O)[C@H]6O[C@@H]6O[C@H](CO)[C@H](O)[C@H](O)[C@H]6O)C(C)(C)C5CC[C@]43C)[C@H]2C1 (stereo partly specified) the IC50 [1] was 1.2 µg/mL (≈ 1.07 µM) and the IC50 [2] was 0.02 µg/mL (≈ 0.0179 µM).

With Nc1ccn([C@@H]2O[C@H](CO)[C@@H](O)[C@@H]2O)c(=O)n1 [CYTARABINE] the IC50 [1] was 0.81 µg/mL (≈ 3.33 µM) and the IC50 [2] was 0.23 µg/mL (≈ 0.946 µM).
